Data set [1] has as its system NCI-H460 (human lung cancer cell line). As to the kind of experiment: Anti-cell activity (MTT) against human tumor cell line NCI-H460. The note with it: 72 h, NCI-H460, cultured three days, read-out: NCI-H460 (GI50 value, ng/mL). It is filed as cell-based. How it is done:
(§1) Three types of human tumor cell lines (all of the cells were obtained from American Type Culture Collection) were seeded on 96-well microplates as follows.
(§2) NCI-H460 (human lung cancer cell line): 5.0×10^2 cells/190 μL/well HCT-15 (P glycoprotein (P-gp) expressing human colon cancer cell line, J. Natl. Cancer Inst., 2001, 93:1234-1245): 1.0×10^3 cells/190 μL/well HCT116 (human colon cancer cell line): 1.0×10^3 cells/190 μL/well On the next day, each test compound was dissolved in 100% dimethyl sulfoxide (DMSO) at a concentration of 10 mg/mL. This solution was diluted with 0.01% Cremophor EL-PBS(−) (Cremophor EL: Sigma Chemical Co., St. Louis, Mo., USA, PBS: Invitrogen Corp., Carlsbad, Calif., USA), and 10 μL of the diluted solution was added to each well (final concentration: 100 to 0.000381 ng/mL). The cells were cultured for three days, and then […] of a 5 mg/mL solution of 3-(4,5-dimethylthiazol-2-yl)-2,5-diphenyl-2H-tetrazolium bromide (MTT, Sigma Chemical Co.) was added to each well. The cells were further cultured for 4 hours, and then the medium was removed by centrifugation. By adding 150 μL of DMSO to each well, the produced formazan product was dissolved. The absorbance of the solution was measured at 540 nm. The drug concentration suppressing cell proliferation of the drug addition group to 50% of the cell proliferation of the drug free group (GI50 value, ng/mL) was calculated, and used as an index of anti-cell activity.

The subject of data set [2] is HCT-15 (P glycoprotein (P-gp) expressing human colon cancer cell line). As to the kind of experiment: Anti-cell activity (MTT) against human tumor cell line HCT-15. The note with it: 72 h, HCT-15 (P-gp expressing), cultured three days, read-out: HCT-15 (GI50 value, ng/mL). The format is cell-based. On the procedure:
as §1, §2

The subject of data set [3] is HCT116 (human colon cancer cell line). As to the kind of experiment: Anti-cell activity (MTT) against human tumor cell line HCT116. The format is cell-based. The settings on record: HCT-116, 72 h, HCT116, cultured three days, read-out: HCT116 (GI50 value, ng/mL). On the procedure:
as §1, §2

A further data set relates to B16 melanoma BL6. Nature of the data set: Antitumor effect in mice subcutaneously transplanted with B16 melanoma BL6. The format is in vivo, Mice (C57BL/6). The note with it: MTD/MED. From the text: (§3) Mice (C57BL/6, Charles River Japan) were subcutaneously transplanted with B16 melanoma BL6 (Cancer Res., Poste, G., Fidler, I. J. et al., 1980, 40:1636; Bioorg. Med. Chem. Lett., Takeda, Y. et al., 2003, 13:185-190), or M5076 (obtained from Japanese Foundation for Cancer Research), which is a histiocytoma expressing P-gp. Four days after the transplantation in the case of B16 melanoma BL6, or 8 to 10 days after the transplantation in the case of M5076, each test compound suspended in a 0.5% aqueous solution of carboxymethylcellulose sodium, or dissolved in EtOH:Tween 80:5% glucose=5:5:90 (v/v %) was orally (po) or intravenously (iv) administered to the mice. Ten days after the administration in the case of B16 melanoma BL6, or 8 to 10 days after the administration in the case of M5076, the mice were dissected, and tumor weights were measured. The antitumor effect was calculated in accordance with the following equation.
(§4) [1−(Average tumor weight of compound administration group/average tumor weight of solvent administration group)]×100
(§5) An antitumor effect of 58% or more was considered effective (Int. J. Cancer, 1989, 43:637-44), and the maximum tolerance dose (MTD, maximum dose not causing death, mg/kg) and minimum effective dose (MED, mg/kg) showing effectiveness were obtained, respectively. The therapeutic index was calculated in accordance with the equation: MTD/MED.
(§6) ND means that the test was not performed. The effective dose range means the range of from MED to MTD.

Data set [4] concerns M5076 (histiocytoma expressing P-gp). Nature of the data set: Antitumor effect in mice subcutaneously transplanted with M5076. The format is in vivo, Mice (C57BL/6). The settings on record: for Therapeutic index: MTD/MED; for Effective dose range: range from MED to MTD, antitumor effect of 58% or more considered effective.
Text: as §3, §4, §5, §6

The nature of data set [5]: Solubility in first and second solution for disintegration test (Japanese Pharmacopoeia). It is filed as physicochemical. The note with it: thermodynamic from solid. On the procedure: Solubility of each compound was determined in the first solution for disintegration test according to Japanese Pharmacopoeia (henceforth referred to as the first solution, solution obtained by adding 7 mL of hydrochloric acid and water to 2.00 g of sodium chloride to dissolve sodium chloride and fill up the solution to 1000 mL, pH 1.2) and the second solution for disintegration test according to Japanese Pharmacopoeia (henceforth referred to as the second solution, solution obtained by adding 118 mL of 0.2 mol/L solution of sodium hydroxide to 6.80 g of potassium dihydrogenphosphate, adding water to the mixture to dissolve potassium dihydrogenphosphate and filling up the solution to 1000 mL, pH 6.8).
Each test compound was dissolved in 100% dimethyl sulfoxide (DMSO) at a concentration of 10 mM, and 50 μL of the solution was lyophilized. The lyophilized test compound was added with 250 μL of the first solution or second solution, and the mixture was stored at room temperature for 12 hours or longer under light shielding, and filtered (0.7 μm). The filtrate was taken in a volume of 90 μL, and added with 50% DMSO (90 μL) to obtain a two-fold diluted solubility sample. The two-fold dilution solubility sample was taken in a volume of 20 μL, and added with 50% DMSO (180 μL) to obtain a […] diluted solubility sample. Solubility of each test sample was determined by quantifying the test compound in the resulting diluted solubility test samples using high-performance liquid chromatography.

Where [6] appears, read: aqueous buffer, second solution for disintegration test, pH 6.8, room temperature, 12 hours or longer, read-out: Solubility (μg/mL) pH 6.8.
The mark [7] stands for this setting: simulated gastric fluid, first solution for disintegration test, pH 1.2, room temperature, 12 hours or longer, read-out: Solubility (μg/mL) pH 1.2.

Values after ≈ are worked out from the molar mass of the structure shown. Where two headings read alike, the source gives them in different places.

Take `CC(=O)O[C@@]12CO[C@@H]1CC[C@@]1(C)[C@@H]3O[C@H](CN4CC(O)C4)O[C@@H]3C3=C(C)[C@@H](OC(=O)[C@H](O)[C@@H](NC(=O)OC(C)(C)C)c4ncccc4F)C[C@@](O)([C@@H](OC(=O)c4ccccc4)[C@@H]12)C3(C)C` [Example 6, (1S,2S,3R,4S,5R,8R,9S,10R,13S)-4-(Acetoxy)-2-(benzoyloxy)-5,20-epoxy-1-hydroxy-9,10-[(1S)-2-(3-hydroxyazetidino)ethylidenedioxy]tax-11-en-13-yl (2R,3S)-3-(tert-butoxycarbonylamino)-3-(3-fluoro-2-pyridyl)-2-hydroxypropionate]: the GI50 turned out to be 0.172 ng/mL (≈ 0.000189 µM) in data set [1], 7.94 ng/mL (≈ 0.00873 µM) in data set [2] and 0.183 ng/mL (≈ 0.000201 µM) in data set [3]. The Therapeutic index in the data set with B16 melanoma BL6 (B16 Melanoma BL6, po) was 4.2; in data set [4] (M5076, po) it was 2.0. Further, in data set [4] (M5076, po), the “Effective dose range” value lay within 18.6 to 38.0 mg/kg. The solubility in data set [5] (pH 1.2, simulated gastric fluid) is 690 µg/mL (≈ 758 µM); in data set [5] (pH 6.8, aqueous buffer), 87 µg/mL (≈ 95.6 µM).

Turning to `CC(=O)O[C@@]12CO[C@@H]1CC[C@@]1(C)[C@@H]3O[C@H](CN4CC(O)C4)O[C@@H]3C3=C(C)[C@@H](OC(=O)[C@H](O)[C@@H](NC(=O)OC(C)(C)C)c4ccccn4)C[C@@](O)([C@@H](OC(=O)c4ccccc4)[C@@H]12)C3(C)C` [Example 5, (1S,2S,3R,4S,5R,8R,9S,10R,13S)-4-(Acetoxy)-2-(benzoyloxy)-5,20-epoxy-1-hydroxy-9,10-[(1S)-2-(3-hydroxyazetidino)ethylidenedioxy]tax-11-en-13-yl (2R,3S)-3-(tert-butoxycarbonylamino)-2-hydroxy-3-(2-pyridyl)propionate], the GI50 in data set [1] was 0.162 ng/mL (≈ 0.000182 µM); in data set [2], 8.08 ng/mL (≈ 0.00906 µM); in data set [3] it was 0.229 ng/mL (≈ 0.000257 µM). For the same compound, the Therapeutic index in the data set on B16 melanoma BL6 (B16 Melanoma BL6, po) was determined as 6.0; in data set [4] (M5076, po) it was 1.0. Further, in data set [4] (M5076, po), the “Effective dose range” value is listed as 30.0 mg/kg. Also, the solubility is 140 µg/mL (≈ 157 µM) in data set [5] (setting [6]) and 1000 µg/mL (≈ 1120 µM) in data set [5] (setting [7]).

For the compound `CC(=O)O[C@@]12CO[C@@H]1CC[C@@]1(C)[C@@H]3O[C@H](CN4CCC4)O[C@@H]3C3=C(C)[C@@H](OC(=O)[C@H](O)[C@@H](NC(=O)OC(C)(C)C)c4ncccc4F)C[C@@](O)([C@@H](OC(=O)c4ccccc4)[C@@H]12)C3(C)C` [Example 2, (1S,2S,3R,4S,5R,8R,9S,10R,13S)-4-(Acetoxy)-9,10-[(1S)-2-(azetidino)ethylidenedioxy]-2-(benzoyloxy)-5,20-epoxy-1-hydroxytax-11-en-13-yl (2R,3S)-3-(tert-butoxycarbonylamino)-3-(3-fluoro-2-pyridyl)-2-hydroxypropionate], the GI50 was 0.606 ng/mL (≈ 0.000678 µM) in data set [1], 2.31 ng/mL (≈ 0.00258 µM) in data set [2] and 0.669 ng/mL (≈ 0.000748 µM) in data set [3]. In addition, the Therapeutic index is 2.9 in the data set with B16 melanoma BL6 (B16 Melanoma BL6, iv); 2.9 with B16 melanoma BL6 (B16 Melanoma BL6, po); 1.0 in data set [4] (M5076, iv); 2.0 in data set [4] (M5076, po). Moreover, the “Effective dose range” value was 14.7 mg/kg in data set [4] (M5076, iv) and 13.7 to 28 mg/kg in data set [4] (M5076, po). The figures for the solubility in data set [5] (setting [6]) and in data set [5] (setting [7]) were 170 µg/mL (≈ 190 µM) and 1100 µg/mL (≈ 1230 µM), respectively.

Values taken from patent US20090186868A1, “Taxane Compound Having Azetidine Ring Structure” (Daiichi Sankyo Company Limited, priority 2005, published 2009).
